Source: patent publication US5444087A, “Manumycin compounds” (Bristol-Myers Squibb Company, priority 1993, dated 1995)
In brackets after ≈: the same amount, converted by molar mass.

Tests used:
Micrococcus luteus A9852 = assay: MIC by broth dilution assay, M. luteus A9852; format: cell-based; conditions: serial broth dilution, nutrient broth
[1] = tested on: Pseudomonas aeruginosa A9843; assay: MIC by broth dilution assay, P. aeruginosa A9843; format: cell-based; conditions: serial broth dilution, nutrient broth
[2] = tested on: Salmonella typhimurium A27908; assay: MIC by broth dilution assay, S. typhimurium A27908; format: cell-based; conditions: Salmonella enterica, serial broth dilution, nutrient broth
[3] = tested on: Klebsiella pnneumoniae A9664; assay: MIC by broth dilution assay, K. pneumoniae A9664; format: cell-based; conditions: serial broth dilution, nutrient broth
M. luteus A21349 = assay: MIC by broth dilution assay, M. luteus A21349; format: cell-based; conditions: Micrococcus luteus, serial broth dilution, nutrient broth
[4] = tested on: Enterobacter cloacae A9656; assay: MIC by broth dilution assay, E. cloacae A9656; format: cell-based; conditions: serial broth dilution, nutrient broth
[5] = tested on: Staphylococcus aureus A9537; assay: MIC by broth dilution assay, S. aureus A9537; format: cell-based; conditions: serial broth dilution, nutrient broth
Bacillus subtilis A9506 = assay: MIC by broth dilution assay, B. subtilis A9506; format: cell-based; conditions: serial broth dilution, nutrient broth
Solubility = format: physicochemical
[6] = tested on: Staphylococcus aureus A9606; assay: MIC by broth dilution assay, S. aureus A9606; format: cell-based; conditions: serial broth dilution, nutrient broth
[7] = target: farnesylation of Ras protein p21 (protein-cysteine farnesyltransferase); assay: Inhibition of farnesylation of Ras protein p21 (assay of Manne et al.); format: biochemical; conditions: assay described by Manne et al. (1990); read-out: IC50 value in inhibiting the farnesylation of Ras protein p21
Escherichia coli SGB888 = assay: MIC by broth dilution assay, E. coli SGB888; format: cell-based; conditions: serial broth dilution, nutrient broth
Proteus mirabilis A9900 = assay: MIC by broth dilution assay, P. mirabilis A9900; format: cell-based; conditions: serial broth dilution, nutrient broth
[8] = tested on: Staphylococcus epidermidis A24548; assay: MIC by broth dilution assay, S. epidermidis A24548; format: cell-based; conditions: serial broth dilution, nutrient broth

Row | Compound | MIC (Micrococcus luteus A9852) | MIC [1] | MIC [2] | MIC [3] | MIC (M. luteus A21349) | MIC [4] | MIC [5] | MIC (Bacillus subtilis A9506) | solubility in acetone (Solubility) | solubility in acetonitrile (Solubility) | solubility in dimethyl sulfoxide (Solubility) | solubility in hexane (Solubility) | solubility in water (Solubility) | MIC [6] | IC50 [7] | MIC (Escherichia coli SGB888) | MIC (Proteus mirabilis A9900) | MIC [8]
1 | CC(C)/C=C/C=C/C=C/C(=O)NC1=CC(O)(/C=C/C=C/C=C/C(=O)NC2=C(O)CCC2=O)C2OC2C1=O (stereo not drawn) [Manumycin E, 2,4,6-heptatrienenamide, 7-isopropyl-N-[5-hydroxy-5-[7-[2-hydroxy-5-oxo-1-cyclopenten-1-yl-amino]-7-oxo-1,3,5-heptatrienyl]-2-oxo-7-oxabicyclo[4.1.0]hept-3-en-yl]-, (all-E)-] | 16 µg/mL (≈ 31.6 µM) | 128 µg/mL (≈ 253 µM) | 32 µg/mL (≈ 63.2 µM) | 128 µg/mL (≈ 253 µM) | 16 µg/mL (≈ 31.6 µM) | 128 µg/mL (≈ 253 µM) | 8 µg/mL (≈ 15.8 µM) | 8 µg/mL (≈ 15.8 µM) | soluble | soluble | soluble | insoluble | insoluble | 8 µg/mL (≈ 15.8 µM) | 120 µM | 2.5 µg/mL (≈ 4.94 µM) | 128 µg/mL (≈ 253 µM) | 8 µg/mL (≈ 15.8 µM)
2 | O=C(/C=C/C=C/C=C/C1CCCCC1)NC1=CC(O)(/C=C/C=C/C=C/C(=O)NC2=C(O)CCC2=O)C2OC2C1=O (stereo not drawn) [Manumycin D, 2,4,6-heptatrienenamide, 7-cyclohexyl-N-[5-hydroxy-5-[7-[2-hydroxy-5-oxo-1-cyclopenten-1-yl-amino]-7-oxo-1,3,5-heptatrienyl]-2-oxo-7-oxabicyclo[4.1.0]hept-3-en-yl]-, (all-E)-] | 2 µg/mL (≈ 3.66 µM) | 128 µg/mL (≈ 234 µM) | 0.5 µg/mL (≈ 0.915 µM) | 128 µg/mL (≈ 234 µM) | 1 µg/mL (≈ 1.83 µM) | 128 µg/mL (≈ 234 µM) | 1 µg/mL (≈ 1.83 µM) | 0.5 µg/mL (≈ 0.915 µM) | soluble | soluble | soluble | insoluble | insoluble | 2 µg/mL (≈ 3.66 µM) | 92.5 µM | 0.1 µg/mL (≈ 0.183 µM) | 128 µg/mL (≈ 234 µM) | 1 µg/mL (≈ 1.83 µM)
3 | CC(C)CC/C=C/C=C/C=C/C(=O)NC1=CC(O)(/C=C/C=C/C=C/C(=O)NC2=C(O)CCC2=O)C2OC2C1=O (stereo not drawn) [Manumycin C, 2,4,6-heptatrienenamide, 7-isopentyl-N-[5-hydroxy-5-[7-[2-hydroxy-5-oxo-1-cyclopenten-1-yl-amino]-7-oxo-1,3,5-heptatrienyl]-2-oxo-7-oxabicyclo[4.1.0]hept-3-en-yl]-, (all-E)-] | 8 µg/mL (≈ 15 µM) | 64 µg/mL (≈ 120 µM) | 2 µg/mL (≈ 3.74 µM) | 128 µg/mL (≈ 239 µM) | 4 µg/mL (≈ 7.48 µM) | 128 µg/mL (≈ 239 µM) | 2 µg/mL (≈ 3.74 µM) | 1 µg/mL (≈ 1.87 µM) | soluble | soluble | soluble | insoluble | insoluble | 4 µg/mL (≈ 7.48 µM) | 100 µM | 0.32 µg/mL (≈ 0.599 µM) | 128 µg/mL (≈ 239 µM) | 2 µg/mL (≈ 3.74 µM)
